Structures can show the parent of a compound that is named as a salt.
Each molecule was assayed against α7-nAChR (Rattus norvegicus (Rat), UniProt Q05941) (assay: Affinity for α7-nAChR by inhibition of [3H]-methyllycaconitine binding to rat brain membranes). Conditions: rat brain membranes (P2 fraction), Ki=IC50/(1+L/KD).
Method: 1. Determination of the Affinity of Test Substances for α7-nAChR by Inhibition of [^3H]-methyllycaconitine Binding to Rat Brain Membranes
The [^3H]-methyllycaconitine binding assay is a modification of the method described by Davies et al. in Neuropharmacol.
Rat brain tissue (hippocampus or whole brain) is homogenized in homogenization buffer (10% w/v, 0.32 M sucrose, 1 mM EDTA, 0.1 mM phenylmethylsulfonyl fluoride (PMSF), 0.01% (w/v) NaN3, pH 7.4, 4° C.) at 600 rpm in a glass homogenizer. The homogenate is centrifuged (1000×g, 4° C., 10 min) and the supernatant is removed. The pellet is resuspended (20% w/v) and the suspension is centrifuged (1000×g, 4° C., 10 min). The two supernatants are combined and centrifuged (15 000×g, 4° C., 30 min). The pellet obtained in this way is referred to as the P2 fraction.
The P2 pellet is washed with binding buffer (50 mM Tris-HCl, 1 mM MgCl2, 120 mM NaCl, 5 mM KCl, 2 mM CaCl2, pH 7.4), and centrifuged (15 000×g, 4° C., 30 min), twice.
The P2 membranes are resuspended in binding buffer and incubated in a volume of 250 μl (amount of membrane protein 0.1-0.5 mg) in the presence of 1-5 nM [^3H]-methyllycaconitine, 0.1% (w/v) BSA (bovine serum albumin) and various concentrations of the test substance at 21° C. for 2.5 h. Incubation is then carried out in the presence of 1 μM α-bungarotoxin or 100 μM nicotine or 10 μM MLA (methyllycaconitine) to determine the non-specific binding.
The incubation is stopped by adding 4 ml PBS (20 mM Na2HPO4, 5 mM KH2PO4, 150 mM NaCl, pH 7.4, 4° C.) and filtering through type A/E glass fibre filters (Gelman Sciences) which have previously been placed in 0.3% (v/v) polyethyleneimine (PEI) for 3 h. The filters are washed twice with 4 ml of PBS (4° C.), and the bound radioactivity is determined by scintillation measurement. All the assays are carried out in triplicate.

Sequence of α7-nAChR (Q05941 23-502 limits assumed): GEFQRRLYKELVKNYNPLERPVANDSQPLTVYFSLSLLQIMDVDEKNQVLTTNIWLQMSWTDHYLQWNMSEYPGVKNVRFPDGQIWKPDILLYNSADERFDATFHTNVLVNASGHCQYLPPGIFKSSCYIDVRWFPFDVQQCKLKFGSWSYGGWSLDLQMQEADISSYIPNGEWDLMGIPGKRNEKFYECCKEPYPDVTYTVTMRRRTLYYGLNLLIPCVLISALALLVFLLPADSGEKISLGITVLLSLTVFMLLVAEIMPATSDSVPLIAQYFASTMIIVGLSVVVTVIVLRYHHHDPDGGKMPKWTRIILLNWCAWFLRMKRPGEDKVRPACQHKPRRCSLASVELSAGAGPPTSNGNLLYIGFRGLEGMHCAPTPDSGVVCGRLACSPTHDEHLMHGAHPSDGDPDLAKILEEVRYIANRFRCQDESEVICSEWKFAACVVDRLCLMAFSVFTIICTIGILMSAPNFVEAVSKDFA

Going from COc1cccc2cc(C(=O)N[C@H]3CN4CCC3CC4)oc12 [Example 19, N-[(3R)-1-Azabicyclo[2.2.2]oct-3-yl]-7-methoxy-1-benzofuran-2-carboxamide hydrochloride] to Nc1cccc2cc(C(=O)N[C@H]3CN4CCC3CC4)oc12 [Example 37, N-[(3R)-1-Azabicyclo[2.2.2]oct-3-yl]-7-amino-1-benzofuran-2-carboxamide], the Ki rises from 0.042 µM to 0.08 µM (1.9-fold). The first binds more tightly here.

First: Nc1ccc2cc(C(=O)N[C@H]3CN4CCC3CC4)oc2c1 [Example 35, N-[(3R)-1-Azabicyclo[2.2.2]oct-3-yl]-6-amino-1-benzofuran-2-carboxamide]
Second: O=C(N[C@H]1CN2CCC1CC2)c1cc2cc(F)ccc2o1 [Example 42, N-[(3R)-1-Azabicyclo[2.2.2]oct-3-yl]-5-fluoro-1-benzofuran-2-carboxamide hydrochloride]
The Ki of the first is 10-fold lower: 0.0037 µM for the first, 0.037 µM for the second. The first binds more tightly here.

O=C(N[C@H]1CN2CCC1CC2)c1cc2cccc([N+](=O)[O-])c2o1 [Example 36, N-[(3R)-1-Azabicyclo[2.2.2]oct-3-yl]-7-nitro-1-benzofuran-2-carboxamide] and O=C(N[C@H]1CN2CCC1CC2)c1cc2cccc(Br)c2o1 [Example 46, N-[(3R)-1-Azabicyclo[2.2.2]oct-3-yl]-7-bromo-1-benzofuran-2-carboxamide] are within 1.5-fold of each other in Ki: 0.063 µM for the first, 0.058 µM for the second.

O=C(N[C@H]1CN2CCC1CC2)c1cc2ccc3ccccc3c2o1 [Example 48, N-[(3R)-1-Azabicyclo[2.2.2]oct-3-yl]naphtho[1,2-b]furan-2-carboxamide hydrochloride] and O=C(N[C@H]1CN2CCC1CC2)c1cc2c(F)cccc2s1 [Example 78, N-[(3R)-1-Azabicyclo[2.2.2]oct-3-yl]-4-fluoro-1-benzothiophene-2-carboxamide hydrochloride] are within 1.5-fold of each other in Ki: 0.075 µM for the first, 0.08 µM for the second.

Compared with O=C(N[C@@H]1CN2CCC1CC2)c1cc2cccc(F)c2s1 [Example 59, N-[(3S)-1-Azabicyclo[2.2.2]oct-3-yl]-7-fluoro-1-benzothiophene-2-carboxamide hydrochloride], Nc1cccc2cc(C(=O)N[C@H]3CN4CCC3CC4)sc12 [Example 68, N-[(3R)-1-Azabicyclo[2.2.2]oct-3-yl]-7-amino-1-benzothiophene-2-carboxamide dihydrochloride] is 10-fold lower in Ki: 0.02 µM for the first, 0.002 µM for the second. The second binds more tightly here.

Going from Nc1ccc2sc(C(=O)N[C@H]3CN4CCC3CC4)cc2c1 [Example 62, N-[(3R)-1-Azabicyclo[2.2.2]oct-3-yl]-5-amino-1-benzothiophene-2-carboxamide dihydrochloride] to Nc1ccc2cc(C(=O)N[C@H]3CN4CCC3CC4)sc2c1 [Example 73, 6-Amino-N-[(3R)-1-azabicyclo[2.2.2]oct-3-yl]-1-benzothiophene-2-carboxamide dihydrochloride], the Ki falls from 0.05 µM to 0.0028 µM (18-fold).

First: O=C(N[C@H]1CN2CCC1CC2)c1cc2cccc(C(F)(F)F)c2s1 [Example 64, N-[(3R)-1-Azabicyclo[2.2.2]oct-3-yl]-7-trifluoromethyl-1-benzothiophene-2-carboxamide hydrochloride]
Second: O=C(N[C@@H]1CN2CCC1CC2)c1cc2cccc(C(F)(F)F)c2s1 [Example 65, N-[(3S)-1-Azabicyclo[2.2.2]oct-3-yl]-7-trifluoromethyl-1-benzothiophene-2-carboxamide hydrochloride]
The Ki of the first is 2.8-fold lower: 0.02 µM for the first, 0.055 µM for the second. The first binds more tightly here.

O=C(N[C@H]1CN2CCC1CC2)c1cc2cc(F)ccc2s1 [Example 74, N-[(3R)-1-Azabicyclo[2.2.2]oct-3-yl]-5-fluoro-1-benzothiophene-2-carboxamide hydrochloride] and O=C(N[C@H]1CN2CCC1CC2)c1cc2cc(F)cc(F)c2s1 [Example 80, N-[(3R)-1-Azabicyclo[2.2.2]oct-3-yl]-5,7-difluoro-1-benzothiophene-2-carboxamide hydrochloride] are within 1.5-fold of each other in Ki: 0.022 µM for the first, 0.031 µM for the second.

Going from COc1cccc2cc(C(=O)N[C@H]3CN4CCC3CC4)sc12 [Example 76, N-[(3R)-1-Azabicyclo[2.2.2]oct-3-yl]-7-methoxy-1-benzothiophene-2-carboxamide hydrochloride] to COc1cccc2cc(C(=O)N[C@@H]3CN4CCC3CC4)sc12 [Example 77, N-[(3S)-1-Azabicyclo[2.2.2]oct-3-yl]-7-methoxy-1-benzothiophene-2-carboxamide hydrochloride], the Ki rises from 0.0067 µM to 0.02 µM (3-fold). The first binds more tightly here.

In the case of CC(=O)Nc1ccc2cc(C(=O)N[C@H]3CN4CCC3CC4)sc2c1 [Example 88, 6-(Acetylamino)-N-[(3R)-1-azabicyclo[2.2.2]oct-3-yl]-1-benzothiophene-2-carboxamide hydrochloride], the Ki is reported as 0.028 µM.

— US8884017B2, “2-heteroarylcarboxylic acid amides” (Bayer Intellectual Property GmbH, priority 2001, dated 2014)
